Results: the supplement of paper PMC10307832

What was measured:
Assay in all cases: relative viability (nuclei count vs DMSO), 5 days (fraction); higher = more cells survive
EPLC-272H = test system: EPLC-272H
Outline: (§1)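 Lung cancer cell lines, seeded in 1536-well plates, were treated the following day by pin tool with a single drug or with five library-drug doses (not always all listed) in √10 steps on top of a fixed anchor-drug dose. Cells were fixed and nuclei stained in one step after 5 days, and nuclei were counted. Relative viability is the nuclei count for treated wells divided by that for vehicle wells, reported as medians of duplicate plates.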

NCI-H2023 = test system: NCI-H2023
Outline: as §1

SK-LU-1 = test system: SK-LU-1
Outline: as §1

NCI-H2085 = test system: NCI-H2085
Outline: as §1

PC-14 = test system: PC-14
Outline: as §1

H3255 = test system: H3255
Outline: as §1

NCI-H647 = test system: NCI-H647
Outline: as §1

NCI-H1734 = test system: NCI-H1734
Outline: as §1

SW 1573 = test system: SW 1573
Outline: as §1

NCI-H322M = test system: NCI-H322M
Outline: as §1

NCI-H661 = test system: NCI-H661
Outline: as §1

NCI-H1993 = test system: NCI-H1993
Outline: as §1

NCI-H2126 = test system: NCI-H2126
Outline: as §1

NCI-H2347 = test system: NCI-H2347
Outline: as §1

LCLC-97TM1 = test system: LCLC-97TM1
Outline: as §1

NCI-H727 = test system: NCI-H727
Outline: as §1

EMC-BAC-2 = test system: EMC-BAC-2
Outline: as §1

NCI-H1915 = test system: NCI-H1915
Outline: as §1

LXF-289 = test system: LXF-289
Outline: as §1

NCI-H2009 = test system: NCI-H2009
Outline: as §1

HOP-62 = test system: HOP-62
Outline: as §1

With `CCN(CC)CCCCNc1ncc2cc(-c3cc(OC)cc(OC)c3)c(NC(=O)NC(C)(C)C)nc2n1` + O=C(CCCCCCC(=O)Nc1ccccc1)NO [Vorinostat] (partner 1 µM) the relative viability (EPLC-272H; first compound 0.01 µM) was 0.4, the relative viability (EPLC-272H; first compound 0.03162 µM) was 0.537 and the relative viability (EPLC-272H; first compound 0.1 µM) was 0.277. For the same compound, the relative viability (EPLC-272H; first compound 0.3162 µM) was 0.493, the relative viability (EPLC-272H; first compound 1 µM) was 0.335 and the relative viability (NCI-H2023; first compound 0.01 µM) was 0.534. The relative viability (NCI-H2023; first compound 0.03162 µM) was 0.756, the relative viability (NCI-H2023; first compound 0.1 µM) was 0.686 and the relative viability (NCI-H2023; first compound 0.3162 µM) was 0.6. The relative viability (NCI-H2023; first compound 1 µM) was 0.567, the relative viability (SK-LU-1; first compound 0.01 µM) was 0.922 and the relative viability (SK-LU-1; first compound 0.03162 µM) was 0.795. The relative viability (SK-LU-1; first compound 0.1 µM) was 0.782, the relative viability (SK-LU-1; first compound 0.3162 µM) was 0.973 and the relative viability (SK-LU-1; first compound 1 µM) was 0.67. It also gave a relative viability (NCI-H2085; first compound 0.01 µM) of 0.782, a relative viability (NCI-H2085; first compound 0.03162 µM) of 0.8 and a relative viability (NCI-H2085; first compound 0.1 µM) of 0.935. For the same compound, the relative viability (NCI-H2085; first compound 0.3162 µM) was 0.858, the relative viability (NCI-H2085; first compound 1 µM) was 0.793 and the relative viability (PC-14; first compound 0.01 µM) was 0.708. For the same compound, the relative viability (PC-14; first compound 0.03162 µM) was 0.84, the relative viability (PC-14; first compound 0.1 µM) was 0.969 and the relative viability (PC-14; first compound 0.3162 µM) was 0.881. For the same compound, the relative viability (PC-14; first compound 1 µM) was 0.622, the relative viability (H3255; first compound 0.01 µM) was 0.702 and the relative viability (H3255; first compound 0.1 µM) was 0.946. For the same compound, the relative viability (H3255; first compound 0.3162 µM) was 1.02, the relative viability (H3255; first compound 1 µM) was 0.785 and the relative viability (NCI-H647; first compound 0.01 µM) was 0.525. For the same compound, the relative viability (NCI-H647; first compound 0.03162 µM) was 0.645, the relative viability (NCI-H647; first compound 0.1 µM) was 0.582 and the relative viability (NCI-H647; first compound 0.3162 µM) was 0.511. It also gave a relative viability (NCI-H647; first compound 1 µM) of 0.491, a relative viability (NCI-H1734; first compound 0.01 µM) of 0.849 and a relative viability (NCI-H1734; first compound 0.03162 µM) of 0.874. It also gave a relative viability (NCI-H1734; first compound 0.1 µM) of 0.974, a relative viability (NCI-H1734; first compound 0.3162 µM) of 0.864 and a relative viability (NCI-H1734; first compound 1 µM) of 0.757. For the same compound, the relative viability (SW 1573; first compound 0.01 µM) was 0.79, the relative viability (SW 1573; first compound 0.03162 µM) was 0.959 and the relative viability (SW 1573; first compound 0.1 µM) was 0.952. It also gave a relative viability (SW 1573; first compound 0.3162 µM) of 0.707, a relative viability (SW 1573; first compound 1 µM) of 0.705 and a relative viability (NCI-H322M; first compound 0.01 µM) of 0.787. It also gave a relative viability (NCI-H322M; first compound 0.03162 µM) of 0.911, a relative viability (NCI-H322M; first compound 0.1 µM) of 0.934 and a relative viability (NCI-H322M; first compound 0.3162 µM) of 0.966. The relative viability (NCI-H322M; first compound 1 µM) was 0.872, the relative viability (NCI-H661; first compound 0.01 µM) was 0.781 and the relative viability (NCI-H661; first compound 0.03162 µM) was 0.757. The relative viability (NCI-H661; first compound 0.1 µM) was 0.856, the relative viability (NCI-H661; first compound 0.3162 µM) was 0.839 and the relative viability (NCI-H661; first compound 1 µM) was 0.741. It also gave a relative viability (NCI-H1993; first compound 0.01 µM) of 0.776, a relative viability (NCI-H1993; first compound 0.03162 µM) of 0.726 and a relative viability (NCI-H1993; first compound 0.1 µM) of 0.899. The relative viability (NCI-H1993; first compound 0.3162 µM) was 0.882, the relative viability (NCI-H1993; first compound 1 µM) was 0.695 and the relative viability (NCI-H2126; first compound 0.01 µM) was 0.771. For the same compound, the relative viability (NCI-H2126; first compound 0.03162 µM) was 0.834, the relative viability (NCI-H2126; first compound 0.1 µM) was 0.807 and the relative viability (NCI-H2126; first compound 0.3162 µM) was 0.834. The relative viability (NCI-H2126; first compound 1 µM) was 0.822, the relative viability (NCI-H2347; first compound 0.01 µM) was 0.509 and the relative viability (NCI-H2347; first compound 0.03162 µM) was 0.543. For the same compound, the relative viability (NCI-H2347; first compound 0.1 µM) was 0.705, the relative viability (NCI-H2347; first compound 0.3162 µM) was 0.588 and the relative viability (NCI-H2347; first compound 1 µM) was 0.472. It also gave a relative viability (LCLC-97TM1; first compound 0.01 µM) of 0.805, a relative viability (LCLC-97TM1; first compound 0.03162 µM) of 0.779 and a relative viability (LCLC-97TM1; first compound 0.1 µM) of 0.615. The relative viability (LCLC-97TM1; first compound 0.3162 µM) was 0.865, the relative viability (LCLC-97TM1; first compound 1 µM) was 0.699 and the relative viability (NCI-H727; first compound 0.01 µM) was 1.2. It also gave a relative viability (NCI-H727; first compound 0.03162 µM) of 1.09, a relative viability (NCI-H727; first compound 0.1 µM) of 1.47 and a relative viability (NCI-H727; first compound 0.3162 µM) of 1.23. For the same compound, the relative viability (NCI-H727; first compound 1 µM) was 1.23, the relative viability (EMC-BAC-2; first compound 0.03162 µM) was 0.403 and the relative viability (EMC-BAC-2; first compound 0.1 µM) was 0.428. For the same compound, the relative viability (EMC-BAC-2; first compound 0.3162 µM) was 0.758, the relative viability (EMC-BAC-2; first compound 1 µM) was 0.444 and the relative viability (NCI-H1915; first compound 0.01 µM) was 0.452. For the same compound, the relative viability (NCI-H1915; first compound 0.03162 µM) was 0.531, the relative viability (NCI-H1915; first compound 0.1 µM) was 0.537 and the relative viability (NCI-H1915; first compound 0.3162 µM) was 0.456. The relative viability (NCI-H1915; first compound 1 µM) was 0.513, the relative viability (LXF-289; first compound 0.01 µM) was 0.768 and the relative viability (LXF-289; first compound 0.03162 µM) was 0.905. It also gave a relative viability (LXF-289; first compound 0.1 µM) of 0.829, a relative viability (LXF-289; first compound 0.3162 µM) of 0.85 and a relative viability (LXF-289; first compound 1 µM) of 0.661. For the same compound, the relative viability (NCI-H2009; first compound 0.01 µM) was 0.731, the relative viability (NCI-H2009; first compound 0.03162 µM) was 0.749 and the relative viability (NCI-H2009; first compound 0.1 µM) was 0.78. It also gave a relative viability (NCI-H2009; first compound 0.3162 µM) of 0.78, a relative viability (NCI-H2009; first compound 1 µM) of 0.624 and a relative viability (HOP-62; first compound 0.01 µM) of 0.715. It also gave a relative viability (HOP-62; first compound 0.03162 µM) of 0.595, a relative viability (HOP-62; first compound 0.1 µM) of 0.616 and a relative viability (HOP-62; first compound 0.3162 µM) of 0.65. For the same compound, the relative viability (HOP-62; first compound 1 µM) was 0.663.
